Data set [1] has as its system P. falciparum strain D10ydhod. The data set can be described thus: [3H]-hypoxanthine incorporation growth inhibition, strain D10ydhod. Format: cell-based, Plasmodium falciparum. To be noted: strain D10ydhod (expresses S. cerevisiae dihydroorotate dehydrogenase). The protocol:
(§1) P. falciparum strains were cultured under standard conditions in RPMI1640 medium supplemented with 0.5% Albumax in 90% N2, 5% 02 and 5% CO2. A modified version of the [^3H]-hypoxanthine incorporation method was employed for assessing growth inhibition by the inhibitor compounds. Briefly, P. falciparum strain Dd2 or strain D10ydhod (this strain express the Saccharomyces cerevisiae dihydroorotate dehydrogenase enzyme which renders mitochondrial electron transport nonessential in the parasite) parasites were seeded at 2% parasitemia in 96-well plates and treated with varying concentration of the inhibitors as well as the solvent (DMSO) for 24 h. [^3H]-Hypoxanthine was added to the cultures and incubation was continued for an additional 24 h. Incorporation of [^3H]-hypoxanthine by the parasites was determined by liquid scintillation. Growth inhibition was assessed as decrease in [^3H]-hypoxanthine incorporation in treated parasites relative to the control parasites treated with the solvent. The dose-response data were analyzed using nonlinear regression analysis (Prism GraphPad), and the EC50 was derived using an inhibitory sigmoid maximum effect (Emax) model. Each assay is completed in triplicate and the average EC50 was calculated. […]

The next data set deals with P. falciparum strain Dd2. The data set can be described thus: [3H]-hypoxanthine incorporation growth inhibition, strain Dd2. The class given is cell-based, Plasmodium falciparum. The note with it: multidrug resistant strain Dd2; 24 h treatment + 24 h [3H]-hypoxanthine; average of triplicate. On the procedure: as §1
Data set [2] can be described thus: Cyclic voltammetry, anodic oxidation. The class given is physicochemical. The note with it: irreversible, anodic peak potential, dichloromethane/0.05 M [NBu4][B(C6F5)4]. The protocol: Electrochemical studies were carried out. The electrolyte solution used for these studies, namely dichloromethane with 0.05 M [NBu4][B(C6F5)4] as the supporting electrolyte, is known to provide an optimum medium for the electrochemical oxidation of compounds containing the MnCp(CO)3 (Cp=η^5-C5H5) backbone (Laws et al., J. Am. Chem. Soc. 2008, 130, 9859). The potentials given here are referred to the ferrocene/ferrocenium reference couple. The experiments were carried out in a controlled atmosphere which minimizes exposure to oxygen and water. We refer to two types of standard electrochemical techniques that are commonly described in books on electrochemistry: cyclic voltammetry and bulk electrolysis (Bard, A. J.; Faulkner, L. R. Electrochemical Methods, John Wiley & Sons, New York, 2001, second edition) The former is useful for the analytical and gross mechanistic aspects of the electron-transfer properties of a compound, whereas the latter is most often employed for the electro-synthetic function of making isolable quantities of electrochemical oxidation or reduction products.
Anodic oxidation of the three compounds was investigated. […]
Table of potentials (vs ferrocene/ferrocenium (FcH)) measured by cyclic voltammetry for oxidation of compounds 3, 4, and 5 in dichloromethane/0.05 M [NBu4][B(C6F5)4]. […]

Consider cymanquine [Compound 3], for which the “potency against strain D10ydhod compared with strain Dd2” value in data set [1] is “Equivalent potency”. The EC50 with P. falciparum strain Dd2 was roughly 10.8 nM. Moreover, in data set [2] (first oxidation), the “Ep(1)” value came to 0.82 V vs FcH. In addition, the “Ep(2)” value in data set [2] (second oxidation) was determined as 1.25 V vs FcH.

The term EC50 denotes the concentration that produces a half-maximal response.

The record behind these values is patent US10512652B2, “Use of cymanquine compounds as antimalarial agents” (priority 2015, dated 2019).
